Laboratory results reported in US12161650B2, “Pharmaceutical compositions comprising a ryanodine receptor modulator and uses thereof” (priority 2021, dated 2024).
Values joined by “and” are separate entries in the source; they are usually repeats but may differ in a detail not shown here. Identical values can stand only once. Like-named read-outs stand apart in the source and are kept apart here.

Legend:
[1] = Phase 1b study in RYR1-Related Myopathy patients, plasma pharmacokinetics; format: in vivo, human (RYR1-Related Myopathy patients)
Description: A Phase 1b study is performed in RYR1-Related Myopathy (RYR1-RM) affected individuals. Compound I was administered in a gastro-resistant tablet according to Example 3 at daily doses. The formulation comprised 20 mg Compound I (based on the mass of 4-[(7-methoxy-2,3-dihydro-1,4-benzothiazepin-4(5H)yl)methyl]benzoic acid). The first three participants were dosed with 120 mg of Compound I (6×20 mg tablets) daily for approximately 28 days. The second group was dosed with 200 mg of Compound I (10×20 mg tablets daily for approximately 28 days. Bloods for PK assessments were at baseline (Day 0, 24h PK), at the study mid-point (day 14±2 days, trough PK), and at the final study visit (day 28, 24h PK). Pharmacokinetic analysis was performed on plasma samples. PK parameters are set forth below: [table]

[2] = Phase 1 clinical trial, Part II, muscle biopsy: concentration in quadriceps muscle; format: in vivo, human (healthy male volunteers); details: for Kp (total muscle concentration divided by plasma concentration) / Kp: muscle Day 13 / plasma Day 14 at 3 hours post dose, geom. mean (geom. % CV); for Kp: quadriceps muscle / plasma, read-out: Kpu (unbound muscle concentration divided by plasma concentration)
Description: For Study part II (for all groups), Concentrations of Compound I were determined in muscle by performing muscle biopsy on quadriceps muscle on day 13, at least 3 hours after morning dose. Plasma and muscle samples were analyzed by LC-MS/MS method. Muscle biopsy was performed to assess the concentration of Compound I in quadriceps muscle. The biopsy was performed on Day 13 at 3 hours post dose at least. Table 9 summarizes the ratios of unbound respective total concentration at Day 13 at 3 hours post dose divided by the plasma concentration on Day 14 at 3 hours post dose.

[3] = human, plasma, po, 200 mg, 200 mg oral daily for 28 days, three subjects
[4] = human, plasma, po, 200 mg, single oral 200 mg, three subjects
[5] = single oral 120 mg, Day 1, three subjects, Max
[6] = single oral 120 mg, Day 1, three subjects, Median
[7] = single oral 120 mg, Day 1, three subjects, Min
[8] = single oral 120 mg, Day 1, three subjects, arithmetic mean
[9] = single oral 120 mg, Day 1, three subjects, geometric mean

SMILES: COc1ccc2c(c1)CN(Cc1ccc(C(=O)O)cc1)CCS2.O=C(O)/C=C/C(=O)O [Compound I, 4-[(7-methoxy-2,3-dihydro-1,4-benzothiazepin-4(5H)yl)methyl]benzoic acid hemifumarate]
- Cmax ([1]; human, plasma, po, 120 mg, single oral 120 mg, Day 1, read-out: Cmax, individual values): 11.1 to 16.3 µg/mL
- Tmax ([1]; human, plasma, po, 120 mg, single oral 120 mg, Day 1, read-out: TMax, all participants): 3 h
- half-life ([1]; human, plasma, po, 120 mg, single oral 120 mg, Day 1, read-out: half-life, individual values (converted)): 12.8 h
- concentration at 0 h [1, 3]: 7.45 µg/mL
- concentration at 0.5 h [1, 3]: 8.19 µg/mL
- concentration at 1 h [1, 3]: 7.9 µg/mL
- concentration at 2 hr ([1]; human, plasma, po, 200 mg, 200 mg oral daily for 28 days, three subjects, time 2 hr): 8.83 µg/mL
- concentration at 3 h [1, 3]: 13.5 µg/mL
- concentration at 4 h [1, 3]: 15.1 µg/mL
- concentration at 5 h [1, 3]: 17.8 µg/mL
- concentration at 6 h [1, 3]: 20 µg/mL
- concentration at 8 h [1, 3]: 18.3 µg/mL
- concentration at 12 h [1, 3]: 15.4 µg/mL
- concentration at 24 h [1, 3]: 8.55 µg/mL
- Tmax ([1]; human, plasma, po, 200 mg, 200 mg oral daily for 28 days, read-out: Tmax, all participants): 5 to 6 h
- concentration at 0 h [1, 4]: 0 µg/mL
- concentration at 0.5 h [1, 4]: 0 µg/mL
- concentration at 1 h [1, 4]: 0 µg/mL
- concentration at 2 h ([1]; human, plasma, po, 200 mg, single oral 200 mg, three subjects, time 2 hr): 0.176 µg/mL
- concentration at 3 h [1, 4]: 1.11 µg/mL
- concentration at 4 h [1, 4]: 14.3 µg/mL
- concentration at 5 h [1, 4]: 17.6 µg/mL
- concentration at 6 h [1, 4]: 15.9 µg/mL
- concentration at 8 h [1, 4]: 13.4 µg/mL
- concentration at 12 h [1, 4]: 10 µg/mL
- concentration at 24 h [1, 4]: 5.52 µg/mL
- Tmax ([1]; human, plasma, po, 200 mg, single oral 200 mg, read-out: TMax, all participants): 5 to 6 h
- half-life, individual values ([1]; single oral 120 mg, Day 1): 15.28 h and 14.40 h
- AUC0-24 [1, 5]: 190 µg·h/mL
- AUC % extrap [1, 5]: 36.4%
- AUC(0-inf) [1, 5]: 290 µg·h/mL
- AUC(0-t) [1, 5]: 190 µg·h/mL
- Cmax [1, 5]: 16.3 µg/mL
- Kel [1, 5]: 0.0544 h⁻¹
- Tlag [1, 5]: 0.50 h
- t½ [1, 5]: 15.28 h
- AUC % extrap [1, 6]: 34.33%
- Kel [1, 6]: 0.04813 h⁻¹
- Tlag [1, 6]: 0.000 h
- AUC0-24 [1, 7]: 150 µg·h/mL
- AUC % extrap [1, 7]: 29.4%
- AUC(0-inf) [1, 7]: 212 µg·h/mL
- AUC(0-t) [1, 7]: 150 µg·h/mL
- Cmax [1, 7]: 11.1 µg/mL
- Kel [1, 7]: 0.0454 h⁻¹
- Tlag [1, 7]: 0.00 h
- t½ [1, 7]: 12.75 h
- AUC % extrap [1, 8]: 33.36%
- Kel [1, 8]: 0.04929 h⁻¹
- Tlag [1, 8]: 0.167 h
- t½ [1, 8]: 14.142 h
- AUC % extrap [1, 9]: 33.23%
- AUC(0-inf) [1, 9]: 256.6 µg·h/mL
- AUC(0-t) [1, 9]: 170.8 µg·h/mL
- Kel [1, 9]: 0.04915 h⁻¹
- Kp (total muscle concentration divided by plasma concentration) ([2]; 20 mg once daily): 0.0808 (65.3) (ng/g)/(ng/ml)
- Kp (total muscle concentration divided by plasma concentration) ([2]; 60 mg once daily): 0.0640 (22.6) (ng/g)/(ng/ml)
- Kp (total muscle concentration divided by plasma concentration) ([2]; 120 mg once daily): 0.0636 (49.9) (ng/g)/(ng/ml)
- Kp (total muscle concentration divided by plasma concentration) ([2]; 240 mg once daily): 0.0440 (30.0) (ng/g)/(ng/ml)
- Dose proportionality of median unbound and total concentrations in quadriceps muscle ([2]; 20-240 mg once daily): appeared dose proportional
- Kp, range of geometric mean ratios across doses ([2]; dose range 20-240 mg): 0.04-0.08 (ng/g)/(ng/mL)
- Kp at 3 h ([2]; male, human, quadriceps muscle (unbound) / plasma, oral, dose range 20-240 mg, read-out: Kpu, range of geometric mean ratios across doses): 0.0081 to 0.0106
- Kp ([2]; male, human, oral, 20 mg once daily): 0.0106
- Kp ([2]; male, human, oral, 60 mg once daily): 0.01
- Kp ([2]; male, human, oral, 120 mg once daily): 0.0081
- Kp ([2]; male, human, oral, 240 mg once daily): 0.0081
